Experimental data as given in patent US12539296B2, “Montelukast for the treatment of erosive hand osteoarthritis” (MMC INTELLECTUAL PROPERTY INSTITUTE, S.L., priority 2018, dated 2026).

Experiments:
[1] = tested on: patients aged ≥6 years; conditions: for example 200 mg/daily; cited from earlier work
[2] = tested on: patients with erosive hand osteoarthritis; experiment: Clinical study of oral 20 mg montelukast daily in patients non-respondent to 10 mg (Example 5); format: in vivo, human
Protocol: For this study, 9 patients were selected from the previous study (Example 4) among those who were non-respondents to the treatment (10 mg montelukast daily).
In the present study, the patients were administered a daily dose of montelukast of 20 mg by the oral route, also using an orally dispersible composition prepared as disclosed in Example 1, according to a once-daily dosage regimen. The age of the patients ranged from 52 to 78 years.
As in the previous study, for assessing the efficacy in pain relief, the visual analogue scale (VAS) methodology was used, where the pain was assessed on a scale of 0 to 10.
For assessing the efficacy in hand functionality improvement, also a visual analogue scale (VAS) of 0 to 10 was also used, wherein 0 meant full functionality, i.e., full ability to hold objects, and 10 meant absence of functionality, i.e., inability to hold any object
The “initial” values mean the values before starting the treatment, and the “final” values mean the values after completing the treatment.

[3] = tested on: patients with erosive hand osteoarthritis; experiment: Clinical observational study of oral 10 mg montelukast daily in patients with erosive hand osteoarthritis (Example 4); format: in vivo, human; conditions: 10 mg daily oral, 3 to 16 months
Protocol: A preliminary clinical observational study was performed in patients suffering from erosive hand osteoarthritis.
50 patients with erosive hand osteoarthritis which were non-respondent or with limited response after treatment with analgesics and/or anti-inflammatories were selected for the study. The patients were administered 10 mg of montelukast daily by the oral route, using an orally dispersible composition prepared as disclosed in Example 1, according to a once-daily dosage regimen.
The following parameters were used to evaluate the efficacy of the treatment: (i) improvement in clinical symptoms; (ii) efficacy in pain relief; and (iii) improvement in radiological evaluation. All assessments were focused on one of the hands of the patients.
The improvement in clinical symptoms was assessed by evaluating the improvement in symptoms such as functionality, stiffness and deformity of the affected hand that entail an improvement in the quality of life of the patients.
For assessing the efficacy in pain relief, the patients were asked to evaluate the pain they felt using the visual analogue scale (VAS) methodology, both before the treatment and at the end of the treatment period.
For assessing the efficacy of the treatment in the radiological parameters of the hand, the following features in the affected joints were evaluated: a) edema, b) subchondral erosions, c) synovitis and d) tenosynovitis. These features were radiologically assessed by means of posteroanterior radiographs of the hand, performed before and after the treatment period. The treatment was considered to provide radiological improvement if there was observable improvement in at least two of the assessed features and no worsening in the remaining features.

[4] = tested on: patient with erosive hand osteoarthritis; experiment: Efficacy of topical treatment in one patient with erosive hand osteoarthritis (Example 6); format: in vivo, human; conditions: 12 weeks
Protocol: After a wash-up period of several weeks, the patient started treatment with a topical formulation prepared as disclosed in example 3, with a dosage of about 10 mg daily per hand, spread on the affected zone for a period of 12 weeks.

[5] = 20 mg daily oral, beginning vs end of treatment
[6] = topical gel of example 3, about 10 mg daily per hand

Question: Which “adverse effects at high doses” value [1] does the source give for `CC(C)(O)c1ccccc1CC[C@@H](SCC1(CC(=O)O)CC1)c1cccc(/C=C/c2ccc3ccc(Cl)cc3n2)c1` [montelukast, 2-[1-[[(1R)-1-[3-[(E)-2-(7-chloroquinolin-2-yl)ethenyl]phenyl]-3-[2-(2-hydroxypropan-2-yl)phenyl]propyl]sulfanylmethyl]cyclopropyl]acetic acid] here?
Answer: does not cause adverse effects

Question: And the “proportion of patients not responding to 10 mg daily that showed pain relief” value ([2]; 20 mg daily oral)?
Answer: ~70%

Question: What about the adverse effects reported ([2]; 20 mg daily oral, 9 patients) of the same molecule?
Answer: No adverse effects

Question: And the “improvement in hand functionality” value ([2]; 20 mg daily oral, all patients)?
Answer: 35%

Question: And the “pain relief in the responding patients” value ([2]; 20 mg daily oral, almost 70% of the patients)?
Answer: 55%

Question: And the “final VAS hand functionality score, mean” value [2, 5]?
Answer: 4.56±0.39

Question: And the “final VAS pain score, mean” value [2, 5]?
Answer: 3.89±0.54

Question: What about the “VAS hand functionality final, Min - Max” value ([2]; after completing 20 mg daily oral treatment, individual values) of the same molecule?
Answer: 3-6

Question: What about the “VAS pain final, Min - Max” value ([2]; after completing 20 mg daily oral treatment, individual values, scale 0 to 10) of the same molecule?
Answer: 1-6

Question: And the “VAS hand functionality final, Mean” value ([2]; after completing 20 mg daily oral treatment, scale 0 (full functionality) to 10 (absence))?
Answer: 4.56

Question: What about the “VAS pain final, Mean” value ([2]; after completing 20 mg daily oral treatment, scale 0 to 10, 9 patients) of the same molecule?
Answer: 3.89

Question: What about the “VAS hand functionality initial, Min - Max” value ([2]; before starting 20 mg daily oral treatment (baseline), individual values) of the same molecule?
Answer: 5-8

Question: What about the “VAS pain initial, Min - Max” value ([2]; before starting 20 mg daily oral treatment (baseline), individual values, scale 0 to 10) of the same molecule?
Answer: 5-9

Question: And the “VAS hand functionality initial, Mean” value ([2]; before starting 20 mg daily oral treatment (baseline), scale 0 (full functionality) to 10 (absence))?
Answer: 7.00

Question: And the “VAS pain initial, Mean” value ([2]; before starting 20 mg daily oral treatment (baseline), scale 0 to 10, 9 patients)?
Answer: 7.00

Question: And the “additional patients with no worsening of the assessed radiological parameters” value [3]?
Answer: 10 patients

Question: What about the “patients with improvement after radiological evaluation (at least two features improved, none worse)” value ([3]; of 50 patients, posteroanterior radiographs) of the same molecule?
Answer: 28 patients

Question: What about the “patients reporting effective pain relief (VAS reduction of at least 2 units on 0 to 10 scale)” value ([3]; out of 45 patients with pain before treatment) of the same molecule?
Answer: 28 patients

Question: What about the “patients with improvement in edema” value ([3]; radiological evaluation) of the same molecule?
Answer: 19 patients

Question: And the “patients with improvement in erosions” value ([3]; radiological evaluation)?
Answer: 14 patients

Question: What about the “patients with improvement in synovitis” value ([3]; radiological evaluation) of the same molecule?
Answer: 28 patients

Question: And the “patients with improvement in tenosynovitis” value ([3]; radiological evaluation)?
Answer: 18 patients

Question: What about the “patients with improvement in clinical symptoms (functionality, stiffness, deformity)” value ([3]; once-daily, of 50 patients) of the same molecule?
Answer: 32 patients

Question: What about the “clinical symptoms of osteoarthritis” value [4, 6] of the same molecule?
Answer: improvement in the clinical symptoms

Question: And the pain relief [4, 6]?
Answer: significant pain relief

Question: What does the source list for `CCC(=O)O[C@]1(C(=O)COC(C)=O)CC[C@H]2[C@@H]3C[C@H](C)C4=CC(=O)C=C[C@]4(C)[C@H]3[C@@H](O)C[C@@]21C` [methylprednisolone aceponate]?
Answer: radiological assessment ([4]; topical, once daily): progression of the disease; pain score (VAS, 0-10 scale) remaining under treatment ([4]; topical, once daily, no improvement in pain relief): higher than 5
